Data on one compound can be found in the NIST ThermoML archive (doi:10.1016/j.fluid.2018.05.005).

Numbers after ± are expanded uncertainties.

For data set [1] the following is noted: Crystal; DSC.
Data set [2] can be described thus: Molar enthalpy of transition or fusion. The following applies: Crystal; DSC.

As for `CC1(C)CCC2=C(O1)c1ccccc1C(=O)C2=O` [3,4-dihydro-2,2-dimethyl-2H-naphtho[1,2-b]pyran-5,6-dione], the Triple point temperature in data set [1] is listed as 428.99 ± 1.9 K. Moreover, in data set [2], the “Molar enthalpy of transition or fusion” value came to 24.5 ± 1.1 kJ/mol.
